Measurements: patent US20220348558A1, “INHIBITORS OF ENCEPHALITIC ALPHAVIRUSES” (priority 2019, published 2022)

How the values were obtained:
VEEV TC83 = experiment: microbe, parasite or virus in culture; format: cell-based; details: Venezuelan equine encephalitis virus, Vero 76, 48 h, read-out: VEEV TC83 EC50 nM
WEEV California = experiment: microbe, parasite or virus in culture; format: cell-based; details: Western equine encephalitis virus, Vero 76, 48 h, read-out: WEEV California EC50 nM

Row | Compound | EC50 (VEEV TC83) [nM] | EC50 (WEEV California) [nM]
1 | COCCOc1ccc(-c2cc(C#N)cc3c(=O)n(-c4ccc(OC)c(F)c4)c(C4CCCN4)nc23)cc1 (stereo not drawn) [Example 154, 3-(3-Fluoro-4-methoxyphenyl)-8-(4-(2-methoxyethoxy)phenyl)-4-oxo-2-(pyrrolidin-2-yl)-3,4-dihydroquinazoline-6-carbonitrile] | 1 to 50 | 1 to 50
2 | COc1c(F)cc(-n2c(C3CCCN3)nc3c(-c4ccnc(C)c4)cc(C#N)cc3c2=O)cc1F (stereo not drawn) [Example 155, 3-(3,5-Difluoro-4-methoxyphenyl)-8-(2-methylpyridin-4-yl)-4-oxo-2-(pyrrolidin-2-yl)-3,4-dihydroquinazoline-6-carbonitrile] | 1 to 50 | 1 to 50
3 | COc1c(F)cc(-n2c(C3C[C@H](F)CN3)nc3c(-c4ccnc(C)c4)cc(C#N)cc3c2=O)cc1F (stereo partly drawn) [Example 156, 3-(3,5-Difluoro-4-methoxyphenyl)-2-((4S)-4-fluoropyrrolidin-2-yl)-8-(2-methylpyridin-4-yl)-4-oxo-3,4-dihydroquinazoline-6-carbonitrile] | 1 to 50 | 151 to 500
4 | COc1ccc(-n2c(C3CCCN3)nc3c(-c4ccc(NS(C)(=O)=O)cc4)cc(C#N)cc3c2=O)cc1F (stereo not drawn) [Example 157, N-(4-(6-Cyano-3-(3-fluoro-4-methoxyphenyl)-4-oxo-2-(pyrrolidin-2-yl)-3,4-dihydroquinazolin-8-yl)phenyl)methanesulfonamide] | 51 to 150 | 51 to 150
5 | COc1ccc(-n2c(C3CCCN3)nc3c(-c4ccc(O)cc4)cc(C#N)cc3c2=O)cc1F (stereo not drawn) [Example 158, 3-(3-Fluoro-4-methoxyphenyl)-8-(4-hydroxyphenyl)-4-oxo-2-(pyrrolidin-2-yl)-3,4-dihydroquinazoline-6-carbonitrile] | 501 to 1000 | 501 to 1000
6 | COc1c(F)cc(-n2c(C3CCCN3)nc3c(-c4cc(C)nc(C)c4)cc(C#N)cc3c2=O)cc1F (stereo not drawn) [Example 159, 3-(3,5-Difluoro-4-methoxyphenyl)-8-(2,6-dimethylpyridin-4-yl)-4-oxo-2-(pyrrolidin-2-yl)-3,4-dihydroquinazoline-6-carbonitrile] | 51 to 150 | 51 to 150
7 | COc1c(F)cc(-n2c(C3C[C@H](F)CN3)nc3c(-c4cc(C)nc(C)c4)cc(C#N)cc3c2=O)cc1F (stereo partly drawn) [Example 160, 3-(3,5-Difluoro-4-methoxyphenyl)-8-(2,6-dimethylpyridin-4-yl)-2-((4S)-4-fluoropyrrolidin-2-yl)-4-oxo-3,4-dihydroquinazoline-6-carbonitrile] | 51 to 150 | 51 to 150
8 | COCCOc1c(F)cc(-n2c(C3CCCN3)nc3c(-c4ccnc(C)c4)cc(C#N)cc3c2=O)cc1F (stereo not drawn) [Example 161, 3-(3,5-Difluoro-4-(2-methoxyethoxy)phenyl)-8-(2-methylpyridin-4-yl)-4-oxo-2-(pyrrolidin-2-yl)-3,4-dihydroquinazoline-6-carbonitrile] | 51 to 150 | 151 to 500
9 | COCCOc1c(F)cc(-n2c(C3CCCN3)nc3c(-c4cc(C)nc(C)c4)cc(C#N)cc3c2=O)cc1F (stereo not drawn) [Example 162, 3-(3,5-difluoro-4-(2-methoxyethoxy)phenyl)-8-(2,6-dimethylpyridin-4-yl)-4-oxo-2-(pyrrolidin-2-yl)-3,4-dihydroquinazoline-6-carbonitrile] | 51 to 150 | 51 to 150
10 | Cc1cc(-c2cc(C#N)cc3c(=O)n(-c4cc(F)c(N5CC6(COC6)C5)c(F)c4)c(C4CCCN4)nc23)cc(C)n1 (stereo not drawn) [Example 163, 3-(3,5-difluoro-4-(2-oxa-6-azaspiro[3.3]heptan-6-yl)phenyl)-8-(2,6-dimethylpyridin-4-yl)-4-oxo-2-(pyrrolidin-2-yl)-3,4-dihydroquinazoline-6-carbonitrile] | > 1000 | > 1000
11 | Cc1cc(-c2cc(C#N)cc3c(=O)n(-c4cc(F)c(NCC5(CO)COC5)c(F)c4)c(C4CCCN4)nc23)cc(C)n1 (stereo not drawn) [Example 164, 3-(3,5-difluoro-4-(((3-(hydroxymethyl)oxetan-3-yl)methyl)amino)phenyl)-8-(2,6-dimethylpyridin-4-yl)-4-oxo-2-(pyrrolidin-2-yl)-3,4-dihydroquinazoline-6-carbonitrile] | 501 to 1000 | 501 to 1000
12 | Cc1ccc(-c2cc(C#N)cc3c(=O)n(-c4ccc(O)c(F)c4)c([C@H]4CCCN4)nc23)cn1 [Example 167, (R)-3-(3-fluoro-4-hydroxyphenyl)-8-(6-methylpyridin-3-yl)-4-oxo-2-(pyrrolidin-2-yl)-3,4-dihydroquinazoline-6-carbonitrile] | 51 to 150 | 151 to 500
13 | N#Cc1cc(-c2ccc(C(F)(F)F)nc2)c2nc([C@H]3CCCN3)n(-c3ccc(O)c(F)c3)c(=O)c2c1 [Example 168, (R)-3-(3-fluoro-4-hydroxyphenyl)-4-oxo-2-(pyrrolidin-2-yl)-8-(6-(trifluoromethyl)pyridin-3-yl)-3,4-dihydroquinazoline-6-carbonitrile] | 51 to 150 | 151 to 500
14 | COc1c(F)cc(-n2c(C3CCCN3)nc3c(-c4ccc(C#CCO)cc4)cc(C#N)cc3c2=O)cc1F (stereo not drawn) [Example 169, 3-(3,5-difluoro-4-methoxyphenyl)-8-(4-(3-hydroxyprop-1-yn-1-yl)phenyl)-4-oxo-2-(pyrrolidin-2-yl)-3,4-dihydroquinazoline-6-carbonitrile] | 51 to 150 | 51 to 150
15 | COc1c(F)cc(-n2c(C3CCCN3)nc3c(-c4ccc(C#CC(C)(C)O)cc4)cc(C#N)cc3c2=O)cc1F (stereo not drawn) [Example 170, 3-(3,5-difluoro-4-methoxyphenyl)-8-(4-(3-hydroxy-3-methylbut-1-yn-1-yl)phenyl)-4-oxo-2-(pyrrolidin-2-yl)-3,4-dihydroquinazoline-6-carbonitrile] | 51 to 150 | 51 to 150
16 | COc1c(F)cc(-n2c(C3CCCN3)nc3c(-c4ccc(C(C)(C)O)cc4)cc(C#N)cc3c2=O)cc1F (stereo not drawn) [Example 171, 3-(3,5-difluoro-4-methoxyphenyl)-8-(4-(2-hydroxypropan-2-yl)phenyl)-4-oxo-2-(pyrrolidin-2-yl)-3,4-dihydroquinazoline-6-carbonitrile] | 51 to 150 | 51 to 150
17 | C=C(C)c1ccc(-c2cc(C#N)cc3c(=O)n(-c4cc(F)c(OC)c(F)c4)c(C4CCCN4)nc23)cc1 (stereo not drawn) [Example 172, 3-(3,5-difluoro-4-methoxyphenyl)-4-oxo-8-(4-(prop-1-en-2-yl)phenyl)-2-(pyrrolidin-2-yl)-3,4-dihydroquinazoline-6-carbonitrile] | 51 to 150 | 51 to 150
18 | COc1c(F)cc(-n2c(C34CC(CN3)C4)nc3c(-c4ccnc(C)c4)cc(C#N)cc3c2=O)cc1F [Example 173, 2-(2-azabicyclo[2.1.1]hexan-1-yl)-3-(3,5-difluoro-4-methoxyphenyl)-8-(2-methylpyridin-4-yl)-4-oxo-3,4-dihydroquinazoline-6-carbonitrile] | 51 to 150 | 51 to 150
19 | COc1c(F)cc(-n2c(C34CC(CN3)C4)nc3c(-c4cc(C)nc(C)c4)cc(C#N)cc3c2=O)cc1F [Example 174, 2-(2-azabicyclo[2.1.1]hexan-1-yl)-3-(3,5-difluoro-4-methoxyphenyl)-8-(2,6-dimethylpyridin-4-yl)-4-oxo-3,4-dihydroquinazoline-6-carbonitrile] | 51 to 150 | 51 to 150
20 | COc1c(F)cc(-n2c(C34CC(CN3)C4)nc3c(-c4ccc(C)nc4)cc(C#N)cc3c2=O)cc1F [Example 175, 2-(2-azabicyclo[2.1.1]hexan-1-yl)-3-(3,5-difluoro-4-methoxyphenyl)-8-(6-methylpyridin-3-yl)-4-oxo-3,4-dihydroquinazoline-6-carbonitrile] | 1 to 50 | 51 to 150
21 | COc1c(F)cc(-n2c(C34CC(CN3)C4)nc3c(-c4cnc(C)c(C)c4)cc(C#N)cc3c2=O)cc1F [Example 176, 2-(2-azabicyclo[2.1.1]hexan-1-yl)-3-(3,5-difluoro-4-methoxyphenyl)-8-(5,6-dimethylpyridin-3-yl)-4-oxo-3,4-dihydroquinazoline-6-carbonitrile] | 1 to 50 | 1 to 50
22 | COc1c(F)cc(-n2c(C3CCCN3)nc3c(-c4ccc(CO)nc4)cc(C#N)cc3c2=O)cc1F (stereo not drawn) [Example 180, 3-(3,5-difluoro-4-methoxyphenyl)-8-(6-(hydroxymethyl)pyridin-3-yl)-4-oxo-2-(pyrrolidin-2-yl)-3,4-dihydroquinazoline-6-carbonitrile] | 1 to 50 | 1 to 50
23 | COc1ccc(-n2c([C@H]3CC(F)(F)CN3)nc3c(-c4ccc(C)nc4)cc(C#N)cc3c2=O)cc1F [Example 184, (R)-2-(4,4-difluoropyrrolidin-2-yl)-3-(3-fluoro-4-methoxyphenyl)-8-(6-methylpyridin-3-yl)-4-oxo-3,4-dihydroquinazoline-6-carbonitrile] | 51 to 150 | 51 to 150
24 | COc1ccc(-n2c([C@@H]3CC(=O)CN3)nc3c(-c4ccc(C)nc4)cc(C#N)cc3c2=O)cc1F [Example 185, (S)-3-(3-fluoro-4-methoxyphenyl)-8-(6-methylpyridin-3-yl)-4-oxo-2-(4-oxopyrrolidin-2-yl)-3,4-dihydroquinazoline-6-carbonitrile] | 151 to 500 | > 1000
25 | COc1ccc(-n2c([C@H]3CC(=O)CN3)nc3c(-c4ccc(C)nc4)cc(C#N)cc3c2=O)cc1F [Example 186, (R)-3-(3-fluoro-4-methoxyphenyl)-8-(6-methylpyridin-3-yl)-4-oxo-2-(4-oxopyrrolidin-2-yl)-3,4-dihydroquinazoline-6-carbonitrile] | 151 to 500 | 501 to 1000
26 | COc1ccc(-n2c(C3CCCN3)nc3c(Cc4ccc(C)nc4)cc(C#N)cc3c2=O)cc1F (stereo not drawn) [Example 187, 3-(3-fluoro-4-methoxyphenyl)-8-((6-methylpyridin-3-yl)methyl)-4-oxo-2-(pyrrolidin-2-yl)-3,4-dihydroquinazoline-6-carbonitrile] | 51 to 150 | 151 to 500
27 | COc1c(F)cc(-n2c(C3CCNC3)nc3c(-c4ccc(C)nc4)cc(C#N)cc3c2=O)cc1F (stereo not drawn) [Example 188, 3-(3,5-difluoro-4-methoxyphenyl)-8-(6-methylpyridin-3-yl)-4-oxo-2-(pyrrolidin-3-yl)-3,4-dihydroquinazoline-6-carbonitrile] | 1 to 50 | 1 to 50
